Tests used:
[1] = system: osteoblastic cells derived from murine calvaria; assay: Etoposide-induced apoptosis of osteoblastic cells, trypan blue uptake; type: cell-based; details: for Suppression by 10^−8 M Flutamide: suppression of the anti-apoptotic effect by androgen receptor antagonist; for Lowest Effective Concentration: inhibition of etoposide-induced osteoblast apoptosis, 1 hour pretreatment; for anti-apoptotic effect on osteoblastic cells after pretreatment with ICI182,780: test agent 10^−8 M, ICI182,780 10^−7 M, 1 h pretreatment
Procedure: Osteoblastic cells derived from murine calvaria were pretreated with the sterols for 1 hour before the addition of the pro-apoptotic agent, etoposide. Apoptosis was determined after 6 hours by trypan blue uptake (Jilka et al, J. Bone and Min. Res. 13:793:802, 1998). * indicates p<0.05 versus etoposide alone, by analysis of variance (ANOVA) (Student-Newman-Keuls method).
Osteoblastic cells derived from murine calvaria were pretreated for 1 hour with the pure receptor antagonist ICI182,780 (10^−7 M) before the addition of the test agents (10^−8 M). Apoptosis was induced and quantified as described in FIG. 3. * indicates p<0.05 versus etoposide alone, by ANOVA (Student-Newman-Keuls method).
In this experiment, osteoblastic cells were derived from murine calvaria and were pretreated with the sterols for 1 hour before the addition of the pro-apoptotic agent, etoposide.
In these experiments, cells were pretreated with the indicated concentrations of the various compounds for 1 hour, in the absence or presence of the androgen receptor antagonist flutamide, before the addition of the proapoptotic agent etoposide. Apoptosis was determined after 6 hours by trypan blue uptake as described in FIG. 3.

[2] = system: extracellular signal regulated kinases (ERKs) 1 and 2; assay: Western blot of phosphorylated ERK1/2 in MLO-Y4 cells; type: cell-based, murine; details: for activation (phosphorylation) of ERKs: 10^−8 M, 5, 15 or 30 minutes; for ability to activate ERKs in the presence of PD98059: 10^−8 M, 5 minutes, 50 μM PD98059
Procedure: (§1) MLO-Y4 osteocytic cells were incubated for 25 minutes in serum -free medium. […] Cell lysates were prepared and proteins were separated by electrophoresis in polyacrylamide gels and transferred to PVDF membranes. Western blotting was performed using a specific antibody recognizing phosphorylated ERKs 1 and 2, followed by reblotting with an antibody recognizing total ERKs. Blots were developed by enhanced chemiluminescence.
as §1, with “MLO-Y4” for “MLO-Y4 osteocytic”, “serum-free medium in the presence or absence of 50 μM PD98059.” for “serum -free medium.”
as §1, with “In this experiment, MLO-Y4” for “MLO-Y4”, “serum-free” for “serum -free”, “extracellular signal regulated kinases” for “ERKs”, “extracellular signal regulated kinases.” for “ERKs.”, “chemiluminescence. […] This effect is too rapid to be accounted for by the classical mechanism of estrogen action.” for “chemiluminescence.”
as §1, with “In this experiment, MLO-Y4” for “MLO-Y4”, “serum-free medium in the presence or absence of 50 μM PD98059.” for “serum -free medium.”, “extracellular signal regulated kinases” for “ERKs”, “extracellular signal regulated kinases.” for “ERKs.”

MLO-Y4 osteocytic cells [3] = assay: Dexamethasone-induced apoptosis of MLO-Y4 cells with PD98059; type: cell-based, murine; details: 10^−8 M; PD98059 1 hour pretreatment; dexamethasone 6 hours
Procedure: Apoptosis was induced by incubation with the pro-apoptotic agent dexamethasone for 6 hour and quantified as described in FIG. 3. * indicates p<0.05 versus the corresponding control group without dexamethasone, by ANOVA (Student-Newman-Keuls method).
That indeed the anti-apoptotic effect of all the compounds tested herein was mediated via activation of ERKs was established by the results of the experiments shown in FIG. 10. […] Apoptosis was induced by incubation with the pro-apoptotic agent dexamethasone for 6 hours and quantified as described in FIG. 3.

[4] = target: T1, murine estrogen receptor-beta (mERβ) (Mus musculus, UniProt O08537); assay: Etoposide-induced apoptosis in HeLa cells stably transfected with mERβ; type: cell-based, human; details: 10^−8 M, 1 h; etoposide 5×10^−5 M, 6 hour
T1 construct: expressed in transfected cells
T1 sequence (O08537 whole entry): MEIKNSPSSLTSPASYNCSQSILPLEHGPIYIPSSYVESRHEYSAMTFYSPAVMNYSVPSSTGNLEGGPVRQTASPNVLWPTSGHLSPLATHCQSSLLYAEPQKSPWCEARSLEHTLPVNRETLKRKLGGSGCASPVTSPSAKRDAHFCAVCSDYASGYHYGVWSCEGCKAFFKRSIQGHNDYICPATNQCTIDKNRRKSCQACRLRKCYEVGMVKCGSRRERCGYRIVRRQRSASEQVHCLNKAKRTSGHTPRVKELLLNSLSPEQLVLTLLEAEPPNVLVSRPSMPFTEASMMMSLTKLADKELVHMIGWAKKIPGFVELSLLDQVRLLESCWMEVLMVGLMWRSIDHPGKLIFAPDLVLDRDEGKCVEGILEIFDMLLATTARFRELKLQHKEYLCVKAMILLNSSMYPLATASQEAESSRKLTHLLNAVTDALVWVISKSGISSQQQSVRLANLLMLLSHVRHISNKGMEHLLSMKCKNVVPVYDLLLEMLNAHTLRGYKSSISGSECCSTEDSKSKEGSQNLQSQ
Description: (§2) CMV promoter alone and CMV promoter-driven cDNA for mERα or mErβ were stably transfected into HeLa cells. […] Cells were trypsinized, pelleted and trypan blue positive cells enumerated.
(§3) In this experiment, instead of calvaria cells, human HeLa cells which contain undetectable, if any, estrogen receptor were used. HeLa cells were stably transfected with either a CMV promoter-driven cDNA for the murine estrogen receptor-alpha (mERα) or a CMV promoter-driven cDNA for the murine estrogen receptor-beta (mERβ). […] Cells were trypsinized, pelleted and trypan blue positive cells were enumerated.

wild type HeLa cells = assay: Etoposide-induced apoptosis in wild type HeLa cells; type: cell-based, human; details: 10^−8 M, 1 h; etoposide 5×10^−5 M, 6 hour
Description: as §2, §3

MLO-Y4 osteocytic cells [5] = assay: Etoposide-induced apoptosis of MLO-Y4 osteocytic cells, trypan blue uptake; type: cell-based, murine; details: for antiapoptotic effect on osteocytes after pretreatment with ICI182,780: ICI182,780 10^−7 M, 1 h pretreatment; for inhibition of etoposide-induced apoptosis of osteocytic cell line: MLO-Y4, pretreated 1 h before etoposide, apoptosis after 6 h
Procedure: Cells were pretreated with the indicated concentrations of the compounds for 1 hour before the addition of the pro-apoptotic agent etoposide. Apoptosis was determined after 6 hour by trypan blue uptake as described in FIG. 3. * indicates p<0.05 versus etoposide alone, by ANOVA (Student-Newman-Keuls method).
MLO-Y4 cells were pretreated for 1 hour with the pure receptor antagonist ICI182,780 (10^−7 M) before the addition of the test agents (10^−8 M). Apoptosis was induced and quantified as described in FIG. 3. * indicates p<0.05 versus etoposide alone, by ANOVA (Student-Newman-Keuls method).
In this experiment, MLO-Y4 cells were pretreated with the indicated concentrations of the various compounds for 1 h before the addition of the pro-apoptotic agent, etoposide. Apoptosis was determined after 6 h by trypan blue uptake as described in FIG. 3.

osteoclasts = details: increased from approximately 0.5%; cited from earlier work
[6] = rats, intravenously; cited from earlier work
[7] = after one year of treatment; cited from earlier work
[8] = for at least four years; cited from earlier work
osteoblasts = details: intermittent administration in mice; from 1.7-2.2%; cited from earlier work

C[C@]12CCC(=O)C=C1CC[C@@H]1[C@@H]2CC[C@]2(C)C(=O)CC[C@@H]12 [4-androstene-3,17-dione]
Suppression by 10^−8 M Flutamide [1]: yes

C[C@]12CC[C@H]3[C@@H](CC=C4C[C@@H](O)CC[C@@]43C)[C@@H]1CC[C@@H]2O [5-androstene-3β-17_-diol]
Lowest Effective Concentration [1]: 10^−8 M | Suppression by 10^−8 M Flutamide [1]: yes

C[C@]12CCC(=O)C[C@@H]1CC[C@@H]1[C@@H]2CC[C@]2(C)[C@@H](O)CC[C@@H]12 [5-α-dihydrotestosterone]
Lowest Effective Concentration [1]: 10^−9 M | Suppression by 10^−8 M Flutamide [1]: yes

C[C@]12CCC(=O)C[C@@H]1CC[C@@H]1[C@@H]2CC[C@]2(C)[C@@H](O)CC[C@@H]12 [5-β-dihydrotestosterone]
Lowest Effective Concentration [1]: 10^−10 M | Suppression by 10^−8 M Flutamide [1]: yes

C[C@]12CC[C@@H]3c4ccc(O)cc4CC[C@H]3[C@@H]1CC[C@H]2O [17α-estradiol]
activation (phosphorylation) of ERKs [2]: activated | ability to activate ERKs in the presence of PD98059 [2]: abrogated | anti-apoptotic effect on osteoblastic cells after pretreatment with ICI182,780 [1]: abrogated | anti-apoptotic effect after pretreatment with PD98059 (MLO-Y4 osteocytic cells [3]): prevented the anti-apoptotic effect | inhibition of etoposide-induced apoptosis in HeLa cells transfected with estrogen receptor β [4]: potently inhibited | effect on etoposide-induced apoptosis of wild type HeLa cells (wild type HeLa cells): none of the three compounds had any effect | antiapoptotic effect on osteocytes after pretreatment with ICI182,780 (MLO-Y4 osteocytic cells [5]): abrogated | inhibition of etoposide-induced apoptosis of osteocytic cell line (MLO-Y4 osteocytic cells [5]): dose-dependently inhibited

C[C@]12CC[C@@H]3c4ccc(O)cc4CC[C@H]3[C@@H]1CC[C@@H]2O [17β-estradiol]
activation (phosphorylation) of ERKs [2]: activated | ability to activate ERKs in the presence of PD98059 [2]: abrogated | inhibition of etoposide-induced osteoblastic cell apoptosis ([1]; pretreated 1 hour before etoposide, apoptosis after 6 hours by trypan blue uptake): prevented apoptosis | anti-apoptotic effect on osteoblastic cells after pretreatment with ICI182,780 [1]: abrogated | anti-apoptotic effect after pretreatment with PD98059 (MLO-Y4 osteocytic cells [3]): prevented the anti-apoptotic effect | inhibition of etoposide-induced apoptosis in HeLa cells transfected with estrogen receptor β [4]: potently inhibited | apoptosis of osteoclasts (osteoclasts): ≤ 2.7% | effect on etoposide-induced apoptosis of wild type HeLa cells (wild type HeLa cells): none of the three compounds had any effect | antiapoptotic effect on osteocytes after pretreatment with ICI182,780 (MLO-Y4 osteocytic cells [5]): abrogated | inhibition of etoposide-induced apoptosis of osteocytic cell line (MLO-Y4 osteocytic cells [5]): dose-dependently inhibited

C[C@]12CC[C@H](OS(=O)(=O)O)CC1=CC[C@@H]1[C@@H]2CC[C@]2(C)C(=O)CC[C@@H]12 [Dehydroisoandrosterone-3-sulfate (DHES), Dehydroisoandrosterone-3-sulfate]
Lowest Effective Concentration [1]: 10^−8 M | Suppression by 10^−8 M Flutamide [1]: no*

CC(=O)N[C@@H](CS)C(=O)O [N-acetylcysteine, acetamido-mercaptopropionic acid]
LD50 [6]: 1140 mg/kg

C[C@]1(O)CC[C@H]2[C@@H]3CCC4=CC(=O)CCC4=C3C=C[C@@]21C [RU1881]
Lowest Effective Concentration [1]: 10^−8 M | Suppression by 10^−8 M Flutamide [1]: yes

C[C@]12CC[C@H]3[C@@H](CCC4=CC(=O)CC[C@@]43C)[C@@H]1CC[C@@H]2O [Testosterone]
Suppression by 10^−8 M Flutamide [1]: yes

CC(O)(P(=O)(O)O)P(=O)(O)O [etidronate]
reduction of resorption depth in human iliac trabecular bone [7]: ~30%

[F-].[Na+] [sodium fluoride]
increase in vertebral bone mass [8]: 10 % a year

B1: PTH: parathyroid hormone, agent known for its role in calcium homeostasis (protein, UniProt P01270 32-115, looked up)
Parathyroid hormone: SVSEIQLMHNLGKHLNSMERVEWLRKKLQDVHNFVALGAPLAPRDAGSQRPRKKEDNVLVESHEKSLGEADKADVNVLTKAKSQ
modifications: Parathyroid hormone
notes: parathyroid hormone, agent known for its role in calcium homeostasis
prevalence of osteoblast apoptosis (osteoblasts): 0.1-0.4%

— US20040224884A1, “Methods of screening for apoptosis-controlling agents for bone anabolic therapies and uses thereof” (priority 1998, published 2004)
